According to patent publication US8618167B2, “Methods of attenuating cognitive deficits with sulfonyl fluorides” (priority 2001, dated 2013):

Columns and labels:
[1] = biological target: acetylcholinesterase in comparison to butyrylcholinesterase (Homo sapiens, UniProt P22303); conditions: cited from earlier work
[2] = system: middle-aged and older rats; conditions: chronic MSF treatment; cited from earlier work
[3] = system: ischemic (MCAo) Sprague-Dawley rats; assay: Elevated body swing test (EBST), motor asymmetry after MCAo; format: in vivo, rat; conditions: 4 wks after MCAo, MSF 1 mg/kg at 24 and 48 hrs then 0.3 mg/kg every other day i.p., mean±S.E.M., vehicle 84.8±10, p>0.05
[4] = system: brain acetylcholinesterase; conditions: cited from earlier work
[5] = system: SDAT patients; conditions: cited from earlier work
[6] = system: ischemic (MCAo) Sprague-Dawley rats; assay: Step-down passive avoidance test after MCAo; format: in vivo, rat
Description: Experimental Protocol. A total of 48 eight-week-old, male, Sprague-Dawley rats weighing about 250 g served as subjects in the present study. All animals were free of virus antibody. A 3-day acclimation period was allowed prior to using the animals. Animals were kept under a 12-12 hr light/dark cycle and allowed free access to food and water before and after surgical procedures. All experimental procedures followed UTEP IACUC guidelines for use of animals in research to minimize discomfort in the animals during surgery and in the recovery period. […] In study one (n=24), the 0.3 mg/kg dose of MSF, which was previously reported as efficacious in ameliorating cognitive deficits in animals, was used to initially provide the putative drug's effects on ischemic animals. Studies two (dose response effects of MSF; n=16) and three (withdrawal of MSF; n=8) were conducted to further characterize the direct neurobehavioral effects of MSF. […]
The passive avoidance test followed the procedures described in detail elsewhere (Borlongan et al., 1998a; 1998b). […] Acquisition of the task was measured in terms of the amount of time it took the rat to remain on the platform continuously for 3 min. Twenty four hrs later, a retention test was conducted by placing the rat on the platform exactly as before and recording the latency to step-down measured to a maximum of 3 min. […]

[7] = biological target: T1, brain AChE (Rattus norvegicus, UniProt P37136); conditions: cited from earlier work
T1 sequence (P37136 32-614): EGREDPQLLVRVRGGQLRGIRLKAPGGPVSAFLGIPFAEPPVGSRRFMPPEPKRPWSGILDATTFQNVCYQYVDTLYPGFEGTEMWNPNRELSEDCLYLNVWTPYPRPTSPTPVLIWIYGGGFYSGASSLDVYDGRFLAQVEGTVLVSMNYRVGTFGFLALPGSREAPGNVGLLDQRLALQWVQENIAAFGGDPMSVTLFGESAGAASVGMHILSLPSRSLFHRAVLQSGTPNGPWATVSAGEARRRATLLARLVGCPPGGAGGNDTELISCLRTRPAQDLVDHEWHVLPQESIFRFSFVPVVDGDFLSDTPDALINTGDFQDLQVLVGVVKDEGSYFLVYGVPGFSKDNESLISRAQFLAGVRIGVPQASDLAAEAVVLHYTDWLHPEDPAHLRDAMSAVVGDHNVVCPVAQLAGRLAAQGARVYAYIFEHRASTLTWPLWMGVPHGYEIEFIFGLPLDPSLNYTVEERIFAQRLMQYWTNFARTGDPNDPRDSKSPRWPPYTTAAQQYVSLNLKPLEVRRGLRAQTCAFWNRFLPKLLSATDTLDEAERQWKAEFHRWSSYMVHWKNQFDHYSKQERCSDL

[8] = system: septal ChAT immunoreactivity; assay: Choline acetyltransferase (ChAT) immunohistochemistry of the septum; format: in vivo, rat
Protocol: Choline Acetyltransferase (ChAT) Immunohistochemistry. Following the behavioral test at 4 wks post-ischemia, randomly selected animals (n=4 per group) were deeply anesthetized and perfused intracardially with 150 ml saline followed by 150 ml of 4% paraformaldehyde. The brains were post-fixed overnight in 4% paraformaldehyde and subsequently immersed in 20% sucrose in 4% paraformaldehyde and stored at 8° C. until sectioning. A vibratome (Vibroslice, Fla.) was used to cut the brain (40 μm sections). Ten serial brain sections that included the septal region (+1.4 to +0.2 mm from the bregma) were processed for ChAT immunohistochemistry. Sections were pre-incubated in 5% blocking serum (normal goat, Jackson ImmunoResearch Laboratories, PA) in 0.1% Triton-X in 0.1 M NaPBS for 60 min, followed by incubation in the primary ChAT antibody (Boehringer Mannheim Biochemical, IN; 1:10 dilution in 0.1 M phosphate-buffered saline, NaPBS) at room temperature overnight. The sections were reacted with the appropriate biotinylated secondary antibody (1:2000) for 45 min, followed by an avidin-biotin-peroxidase complex system (ABC Elite Vectastain Kit, Vector, Burlingame, Calif.) for 45 min. Finally, the Vector VIP Kit (Vector, Burlingame, Calif.) was used to visualize the reaction product. The sections were mounted on gelatin-coated glass slides, dried overnight, dehydrated in increasing alcohol concentrations, and cover-slipped using Permount (Fisher Scientific, Pittsburgh, Pa.) mounting solution. Serial sections were digitized using a PC-based Image Tools computer program. To determine the ChAT alterations in the septum, comparisons of mean total number (average counts from ten brain sections per animal) of septal ChAT-immunoreactive (ir) neurons from MSF- and vehicle-treated ischemic animals were conducted. Individual counts of ChAT-ir neurons were made using the following criteria: heavily stained nuclei (HN), pale stained nuclei (PN) and presence of elaborate processes (P). […] In addition, a 5-point semi-quantitative scale was used to assess the intensity of ChAT immunoreactivity. […]

[9] = biological target: T2, acetylcholinesterase (Rattus norvegicus, UniProt P37136); assay: Control acetylcholinesterase assays of brain after MSF treatment (Ellman spectrophotometric method); format: in vivo; conditions: same regimen; dissected brain part
T2 construct: from tissue; host or cells: rat brain (whole brain, hippocampus, cortex, striatum/nucleus accumbens)
T2 sequence (P37136 32-614): T1 sequence (P37136 32-614)
Protocol: Control Acetylcholinesterase Assays. Two additional groups of normal control (non-ischemic) rats were treated with MSF (N=4) or peanut oil vehicle (N=4) in accordance with the exact procedures used with the other groups in order to estimate the level of acetylcholinesterase inhibition produced. At the end of the study, the rats were sacrificed and acetylcholinesterase assays were conducted at 25° C. according to the spectrophotometric method (Ellman et al., 1961) with minor modifications (pH set at 7.4 and using 1 mM acetyl-β-methyl-thiocholine iodide as substrate).
Drugs. For study 1, animals received ip injections of either MSF (1 mg/kg at 24 and 48 hrs post-MCAo and 0.3 mg/kg thereafter every other day) or the vehicle, peanut oil, for four weeks. Each animal received 0.5 ml of the solution. For study 2, animals received 1 mg/kg at 24 and 48 hrs post-MCAo and 0, 0.15, 0.30 or 0.6 mg/kg of MSF in peanut oil using the same regimen mentioned above. For study 3, animals were introduced to the same regimen as in study 1, but thereafter received peanut oil every other day from four weeks up to eight weeks post-MCAo.

[10] = system: ischemic (MCAo) Sprague-Dawley rats; conditions: rat, in vivo
[11] = system: ischemia-induced loss of hippocampal pyramidal cells and acetylcholine; conditions: pretreatment; cited from earlier work
[12] = chronic MSF 0.22 mg/kg three times per week
[13] = single systemic injection of 1.5 mg/kg MSF

Sequence of acetylcholinesterase in comparison to butyrylcholinesterase (P22303 32-614): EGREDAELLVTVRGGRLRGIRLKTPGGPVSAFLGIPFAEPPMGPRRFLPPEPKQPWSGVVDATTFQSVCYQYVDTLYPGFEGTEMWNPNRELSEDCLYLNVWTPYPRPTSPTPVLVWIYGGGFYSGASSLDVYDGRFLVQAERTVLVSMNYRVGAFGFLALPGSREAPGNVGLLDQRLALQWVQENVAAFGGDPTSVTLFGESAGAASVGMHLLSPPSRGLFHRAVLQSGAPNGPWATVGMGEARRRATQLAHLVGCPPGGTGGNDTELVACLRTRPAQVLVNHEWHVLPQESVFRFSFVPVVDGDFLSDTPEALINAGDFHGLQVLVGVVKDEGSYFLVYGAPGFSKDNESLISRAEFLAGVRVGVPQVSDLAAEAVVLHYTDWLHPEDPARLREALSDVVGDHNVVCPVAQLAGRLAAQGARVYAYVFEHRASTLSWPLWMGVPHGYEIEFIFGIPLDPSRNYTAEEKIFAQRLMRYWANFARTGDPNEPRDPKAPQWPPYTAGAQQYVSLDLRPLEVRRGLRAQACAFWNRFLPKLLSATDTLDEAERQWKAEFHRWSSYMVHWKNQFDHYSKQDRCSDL

## CS(=O)(=O)F [MSF, Methanesulfonyl fluoride]
[1]
  selectivity as inhibitor of acetylcholinesterase in comparison to butyrylcholinesterase: high selectivity
[2]
  acquisition of one-trial per day discriminative reward learning task: enhance the acquisition
[3]
  biased swing activity (EBST): 87.7±8%
[4]; at up to 80-90% brain inhibition
  toxicity at accumulated brain acetylcholinesterase inhibition: without toxicity
[4]; relatively small doses over a long period of time, minimum inhibition of peripheral enzyme
  inhibition of brain acetylcholinesterase that can be accumulated: 80-90%
[5]; SDAT patients
  persistence of cognition-enhancing effects after withdrawal: persisted up to eight weeks after withdrawal of the drug
[5]; double-blind, placebo-controlled study
  cognitive performance of SDAT patients: significant clinical improvements
[6]; 4 wks after MCAo, same regimen, mean±S.E.M., vehicle 398±62, p<0.05
  passive avoidance: time to acquire the task: 255 ± 36 s
[6]; retention test 24 hrs after acquisition, max 3 min, vehicle 79±26, p<0.05
  passive avoidance: retention of the task (step down latency): 145 ± 18 s
[7]; [12]
  decrement in brain AChE activity: about 50%
  liver damage: no liver damage
  locomotor side effects: without discernable locomotor side effects
[7]; [13]
  behavioral alterations: no observable behavioral alterations
  reduction of brain AChE activity: 70%
[8]; compared to vehicle-treated ischemic animals
  intensity of staining of ChAT-ir neurons in lateral and medial septum: more intense staining of ChAT-ir neurons
[8]; septum, 4 wks post-ischemia, heavily stained nuclei with processes, p<0.05
  increment in mean total number of HN+P ChAT-ir cells vs vehicle-treated ischemic animals: 10%-15%
[8]; septum, 4 wks post-ischemia, heavily stained nuclei, p<0.05
  increment in mean total number of HN ChAT-ir cells vs vehicle-treated ischemic animals: 10%-15%
[9]
  acetylcholinesterase inhibition in cortex: 85.9%
  acetylcholinesterase inhibition in hippocampus: 88.5%
  acetylcholinesterase inhibition in striatum/nucleus accumbens: 95.0%
[10]
  ischemia-induced apoptotic cell death: did not block ischemia-induced apoptotic cell death
  mean volume of infarcted tissue: 78.1±14.2 mm^3

## CCN(C)C(=O)Oc1cccc([C@H](C)N(C)C)c1 [ENA-173]
[11]
  levels of hippocampal acetylcholine and ischemia-induced loss of hippocampal pyramidal cells: preserve the levels of hippocampal acetylcholine and to protect against ischemia-induced loss of pyramidal cells

## COP(=O)(OC)C(O)C(Cl)(Cl)Cl (stereo not drawn) [metrifonate, reference compound]
[1]
  selectivity as inhibitor of acetylcholinesterase in comparison to butyrylcholinesterase: do not show this high degree of selectivity
